Measured values as given in PMC8119466, “A screen of FDA-approved drugs identifies inhibitors of protein tyrosine phosphatase 4A3 (PTP4A3 or PRL-3)” (Scientific Reports, 2021).

Tests used:
[1] = molecular target: T1, Yoph (Yersinia enterocolitica, UniProt P15273); assay: PhosphataseProfiler (Eurofins) selectivity panel; type: biochemical; settings: 25µM
T1 construct: purchased Eurofins PP260
Procedure: In 384 well plates, 2.5 μM recombinant PRL-1, PRL-2, or PRL-3 was combined with DiFUMP (Life Technologies, Cat # E12020) at the KM of each protein in reaction buffer (20 mM Tris–Cl, pH 7.5, 150 mM NaCl, 10 mM DTT) as previously reported. Briefly, protein was diluted in reaction buffer and allowed to incubate at 4 °C for 20 min to allow for full reduction of the active site. DiFMUP, drug, and protein were added, and plates were incubated for 20 min at room temperature. Fluorescence intensities were measured on a Cytation 5 plate reader (Biotek) at an EX:360 nm and EM:460 nm. Data were normalized to vehicle control and IC50 values were calculated on GraphPad Prism version 8. Inhibition selectivity for PRLs over a panel of other phosphatases was determined using PhosphataseProfiler (Eurofins, Cat # PP260).

[2] = molecular target: T2, SHP1 (Homo sapiens, UniProt P29350); assay: PhosphataseProfiler (Eurofins) selectivity panel; type: biochemical; settings: SHP1, 25µM
T2 construct: purchased Eurofins PP260
T2 sequence (P29350 whole entry): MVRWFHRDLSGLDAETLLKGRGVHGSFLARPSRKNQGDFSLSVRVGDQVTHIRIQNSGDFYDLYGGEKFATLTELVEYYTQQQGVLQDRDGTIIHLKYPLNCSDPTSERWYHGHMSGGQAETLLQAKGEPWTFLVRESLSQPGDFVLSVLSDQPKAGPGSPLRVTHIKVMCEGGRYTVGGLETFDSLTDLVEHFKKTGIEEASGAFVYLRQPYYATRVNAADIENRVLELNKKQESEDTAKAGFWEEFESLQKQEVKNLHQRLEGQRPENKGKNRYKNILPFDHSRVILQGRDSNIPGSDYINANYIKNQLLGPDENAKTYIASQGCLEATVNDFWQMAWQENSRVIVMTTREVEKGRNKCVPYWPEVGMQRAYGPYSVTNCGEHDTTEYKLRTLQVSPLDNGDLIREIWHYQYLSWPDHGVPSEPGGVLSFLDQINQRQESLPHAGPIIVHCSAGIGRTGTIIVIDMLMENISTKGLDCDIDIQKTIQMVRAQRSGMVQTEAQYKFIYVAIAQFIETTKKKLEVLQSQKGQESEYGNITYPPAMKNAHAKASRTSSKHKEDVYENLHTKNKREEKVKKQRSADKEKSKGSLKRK

[3] = system: HEK293T cells; assay: Annexin V staining, HEK293T; type: cell-based, human; settings: 100 µM Salirasib or 25 µM Candesartan, 24 and 48 hr
Procedure: (§1) HEK293T, HCT116, and SW480 cells were plated in 6 well dishes at 4 × 10^5 cell seeding density and treated with DMSO, Candesartan and Salirasib at the indicated concentrations. Cells were collected at 24 h and 48 h time points and the AnnexinV staining was performed according to the instructions from the manual (Thermo Fisher, Cat # 00-0055-56). Flow cytometry with AnnexinV-FITC conjugated antibody (Thermo Fisher, Cat # A13199) was used to determine the population of cells incorporating Annexin V and PI was used for the DNA content.

[4] = system: SW480 cells; assay: Annexin V staining, SW480; type: cell-based, human; settings: 100 µM Salirasib or 25 µM Candesartan, 24 and 48 hr
Procedure: as §1

[5] = system: HEK293T cells; assay: Click-IT Edu cell proliferation assay, HEK293T; type: cell-based, human; settings: 100 µM Salirasib or 25 µM Candesartan, 24 and 48 hr
Procedure: (§2) The cell proliferation assay was performed using the Click-IT Edu cell proliferation kit from (Thermo Fisher, Cat # C10419) according to the manufacturer’s protocol. Briefly, HEK293T, HCT116 and SW480 cells were plated in 6 well dishes at 4 × 10^5 cell seeding density and treated with DMSO, Candesartan and Salirasib at the indicated concentrations. Edu was added 2 h prior to collecting the cells at 24 h and 48 h time points and the assay was performed according to the instructions from the manual. Flow cytometry with AlexaFluor647 conjugated azide dye was used to determine the cellular proliferation and DAPI was used for the DNA content.

[6] = molecular target: T3, VHR (Homo sapiens, UniProt P51452); assay: PhosphataseProfiler (Eurofins) selectivity panel; type: biochemical; settings: 25µM
T3 construct: purchased Eurofins PP260
T3 sequence (P51452 whole entry): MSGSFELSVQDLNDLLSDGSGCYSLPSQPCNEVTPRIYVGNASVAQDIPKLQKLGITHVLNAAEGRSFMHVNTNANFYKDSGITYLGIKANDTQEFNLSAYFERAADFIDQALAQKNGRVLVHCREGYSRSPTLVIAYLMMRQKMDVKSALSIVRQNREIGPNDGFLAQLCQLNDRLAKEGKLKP

[7] = system: phospho-ERK; assay: Western blot of phospho-ERK in HCT116 cells; type: cell-based, human; settings: HCT116, 24 hr; 100 µM Salirasib, 25 µM Candesartan
Procedure: Cells were lysed using Qproteome lysis buffer (Qiagen, Cat # 37901), then spun at 14,000 rpm for 10 min at 4 °C. Protein concentration in the supernatant was quantified using BCA assay (Thermo Scientific, Cat # 23227). 30 μg of protein was loaded into each lane of a TGX-stain-free pre-cast 4–20% SDS gel (Biorad, Cat # 4568094), total protein was quantified upon stain-free gel imaging, and protein was transferred onto PVDF membrane using the Trans-Blot Turbo Transfer System (BioRad, Cat # 1704150). Membranes were blocked with 5% milk in 1% TBST for 1 h, and a 1:1000 dilution of Anti-PRL-3 antibody (R&D Biosystems, Cat # MAB3219), 1:5000 phospho-ERK (Cell Signaling, Cat # 19101) or 1:5000 total ERK (Cell Signaling, Cat # 137F5) was added overnight. Following three washes in TBST, secondary HRP-conjugated antibody (GE, Cat # NA9340V) were added at a 1:5000 dilution for 1 h and membranes imaged using Clarity Western ECL Substrate. (BioRad, Cat # 1705061).

[8] = system: HEK293T cells; assay: MTT viability assay; type: cell-based, human; settings: 16 h
Procedure: Cells were seeded into duplicate wells of a 96 well plate at a density of 2 × 10^4 cells per well and allowed to recover for 24 h. Cells were then treated with drug or DMSO at the indicated concentrations for 16 h. Following drug treatment, 10 μL of 5 mg/ml MTT (Sigma, M5655) was added to each well and cells were incubated for 4 h. Finally, media were removed, and the dye was solubilized in 100 μL of 0.1 M HCl in isopropanol. Absorbance was measured at 570 nm and 690 nm with final absorbance measurements as 570–690 nm.

[9] = system: HCT116 cells; assay: Annexin V staining, HCT116; type: cell-based, human; settings: HCT-116; 100 µM Salirasib or 25 µM Candesartan; 24 and 48 hr
Procedure: as §1

[10] = molecular target: T4, PTP1B (Homo sapiens, UniProt P18031); assay: PhosphataseProfiler (Eurofins) selectivity panel; type: biochemical; settings: 25µM
T4 construct: purchased Eurofins PP260
T4 sequence (P18031 whole entry): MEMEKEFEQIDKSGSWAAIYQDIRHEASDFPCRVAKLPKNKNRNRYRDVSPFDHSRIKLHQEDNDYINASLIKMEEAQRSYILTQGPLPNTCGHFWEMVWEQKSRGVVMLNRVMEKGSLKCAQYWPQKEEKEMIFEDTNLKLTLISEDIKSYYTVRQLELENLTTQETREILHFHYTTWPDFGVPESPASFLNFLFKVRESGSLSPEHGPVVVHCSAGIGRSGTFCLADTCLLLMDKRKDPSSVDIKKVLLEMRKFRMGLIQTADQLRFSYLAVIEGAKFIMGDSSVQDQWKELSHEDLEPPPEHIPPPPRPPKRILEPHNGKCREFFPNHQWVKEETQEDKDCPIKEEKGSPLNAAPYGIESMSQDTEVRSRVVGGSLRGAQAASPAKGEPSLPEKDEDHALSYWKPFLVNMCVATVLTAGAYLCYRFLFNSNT

[11] = molecular target: T5, recombinant PRL-2 (Homo sapiens, UniProt Q12974); assay: In vitro phosphatase assay (DiFMUP hydrolysis), PRL-2; type: biochemical; settings: for % Phosphatase Activity (compared to DMSO) PRL-2: FDA-approved drug screen;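 as to all read-outs here: PRL-2 activity read as DiFMUP hydrolysis after 20 min at room temperature with drug, enzyme first pre-reduced at 4 °C for 20 min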
T5 construct: 6xHis (N, cleaved yes); made in house; host or cells: E. coli One Shot BL21 Star
T5 sequence (Q12974 1-167): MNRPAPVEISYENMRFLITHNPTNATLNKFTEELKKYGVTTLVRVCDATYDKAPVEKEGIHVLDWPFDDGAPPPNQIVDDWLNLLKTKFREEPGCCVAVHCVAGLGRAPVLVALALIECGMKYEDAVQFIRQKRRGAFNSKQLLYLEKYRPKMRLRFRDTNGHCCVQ

[12] = molecular target: T6, PTPN22 (Homo sapiens, UniProt Q9Y2R2); assay: PhosphataseProfiler (Eurofins) selectivity panel; type: biochemical; settings: PTPN22, 25µM
T6 construct: purchased Eurofins PP260
T6 sequence (Q9Y2R2 whole entry): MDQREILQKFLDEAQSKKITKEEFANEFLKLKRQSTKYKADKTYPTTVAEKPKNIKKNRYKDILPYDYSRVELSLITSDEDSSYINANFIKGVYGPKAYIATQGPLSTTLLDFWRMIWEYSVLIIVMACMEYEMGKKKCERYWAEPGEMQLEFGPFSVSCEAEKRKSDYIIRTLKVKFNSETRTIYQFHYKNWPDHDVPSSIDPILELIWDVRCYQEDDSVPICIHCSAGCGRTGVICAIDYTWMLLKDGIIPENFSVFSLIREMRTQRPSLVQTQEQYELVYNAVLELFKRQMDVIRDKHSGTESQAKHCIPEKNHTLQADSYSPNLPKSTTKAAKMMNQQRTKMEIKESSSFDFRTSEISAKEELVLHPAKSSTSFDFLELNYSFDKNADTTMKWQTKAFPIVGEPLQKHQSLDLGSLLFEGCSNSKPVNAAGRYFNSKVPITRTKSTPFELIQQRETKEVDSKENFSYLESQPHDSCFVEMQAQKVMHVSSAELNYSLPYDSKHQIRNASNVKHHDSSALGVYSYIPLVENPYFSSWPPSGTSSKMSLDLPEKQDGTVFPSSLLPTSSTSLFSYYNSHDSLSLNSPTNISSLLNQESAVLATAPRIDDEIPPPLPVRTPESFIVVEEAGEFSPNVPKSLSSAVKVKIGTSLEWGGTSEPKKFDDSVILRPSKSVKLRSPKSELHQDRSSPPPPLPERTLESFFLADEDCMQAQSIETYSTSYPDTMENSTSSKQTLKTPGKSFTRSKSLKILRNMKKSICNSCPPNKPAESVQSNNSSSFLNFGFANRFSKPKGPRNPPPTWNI

[13] = system: SW480 cells; assay: Click-IT Edu cell proliferation assay, SW480; type: cell-based, human; settings: 100 µM Salirasib or 25 µM Candesartan, 24 and 48 hr
Procedure: as §2

T1 sequence (P15273 whole entry, species assumed): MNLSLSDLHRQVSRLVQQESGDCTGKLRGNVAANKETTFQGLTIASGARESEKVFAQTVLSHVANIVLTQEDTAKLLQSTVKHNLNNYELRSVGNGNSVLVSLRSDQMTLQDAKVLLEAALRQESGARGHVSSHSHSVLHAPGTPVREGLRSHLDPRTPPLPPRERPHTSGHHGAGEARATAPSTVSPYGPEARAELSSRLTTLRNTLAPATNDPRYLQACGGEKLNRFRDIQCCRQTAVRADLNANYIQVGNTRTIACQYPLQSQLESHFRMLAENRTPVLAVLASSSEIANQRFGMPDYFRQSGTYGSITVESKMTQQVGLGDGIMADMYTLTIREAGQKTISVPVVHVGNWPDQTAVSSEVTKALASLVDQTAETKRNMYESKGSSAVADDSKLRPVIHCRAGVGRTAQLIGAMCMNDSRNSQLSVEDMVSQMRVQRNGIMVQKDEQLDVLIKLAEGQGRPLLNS

Compound | Percent Phosphatase Activity (compared to DMSO) [1] [%] | Percent Phosphatase Activity (compared to DMSO) [2] [%] | apoptosis (AnnexinV plus propidium iodide) [3] | apoptosis (AnnexinV plus propidium iodide) [4] | cell cycle (EdU staining) [5] | Percent Phosphatase Activity (compared to DMSO) [6] [%] | phospho-ERK levels [7] | viability (MTT) ([8]; 100 µM) | viability (MTT) ([8]; up to 50 µM) | apoptosis (AnnexinV plus propidium iodide) [9] | Percent Phosphatase Activity (compared to DMSO) [10] [%] | % Phosphatase Activity (compared to DMSO) PRL-2 [11] [%] | % Phosphatase Activity (compared to DMSO) PRL-2 ([11]; listed as Candesartan Cilexetil) [%] | IC50 ([11]; […] protein, DiFMUP at KM, read-out: Calculated IC50, PRL-2 phosphatase activity) [µM] | Percent Phosphatase Activity (compared to DMSO) [12] [%] | cell cycle (EdU staining) [13] | viability (MTT) ([8]; drug doses 1 to 100 µM, normalized to 1% DMSO)
CCOc1nc2cccc(C(=O)O)c2n1Cc1ccc(-c2ccccc2-c2nnn[nH]2)cc1 [Candesartan] | 112 | 116 | did not significantly impact | did not significantly impact | did not significantly impact | 87 | decreased phospho-ERK levels | viability dropped significantly | insignificant effect on viability | did not significantly impact | 109 | 92 | 13 | 80 ± 15 | 136 | did not significantly impact | –
CC(C)=CCC/C(C)=C/CC/C(C)=C/CSc1ccccc1C(=O)O [Salirasib] | – | 113 | – | – | did not significantly impact | 97 | decreased phospho-ERK levels | – | – | – | 114 | 6 | – | – | 129 | did not significantly impact | no effect on the viability
